From patent US20250368625A1, “PIPERAZINES” (Grünenthal GmbH, priority 2024, published 2025)
pEC50: −log10 of the molar value.

Biological target: T1, human SSTR4 (Homo sapiens, UniProt P31391)
T1 construct: expressed in transfected cells; host or cells: CHO-K1
Assay: hSSTR4 cAMP assay (cAMP accumulation, LANCE Ultra cAMP kit, CHO-K1 human SSTR4 Gi cell line)
Format: cell-based
Settings: functional agonism, forskolin 10 μM stimulated CHO-K1 human SSTR4 Gi cells, 30 min at 25° C., at least duplicate, averaged; read-out: hSSTR4 EC50
Summary of the method: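 CHO-K1 cells expressing human SSTR4 (Gi), pre-cultured 18-20 h or thawed and used directly, stimulated with 10 μM forskolin plus test agonist in concentration series, 30 min at 25° C. Lysate cAMP read by TR-FRET (Eu-cAMP tracer/ULight-anti-cAMP, 1 h, 25° C). Normalized to forskolin-only and forskolin+100 nM SST14 controls, 4-parameter fit; ≥duplicate, averaged.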

T1 sequence (P31391 whole entry): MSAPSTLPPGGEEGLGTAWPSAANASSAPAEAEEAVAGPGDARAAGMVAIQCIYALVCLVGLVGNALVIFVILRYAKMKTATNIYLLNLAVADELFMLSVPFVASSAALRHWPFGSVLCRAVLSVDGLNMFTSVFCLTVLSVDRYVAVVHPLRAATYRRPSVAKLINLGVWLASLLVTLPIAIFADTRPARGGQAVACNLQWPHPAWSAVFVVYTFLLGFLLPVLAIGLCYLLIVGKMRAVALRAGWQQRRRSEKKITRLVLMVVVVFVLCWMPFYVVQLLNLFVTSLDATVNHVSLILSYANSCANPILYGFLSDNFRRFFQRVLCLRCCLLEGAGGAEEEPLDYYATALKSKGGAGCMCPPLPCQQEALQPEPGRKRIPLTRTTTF

Row | Compound | pEC50
1 | Cc1cccn2c(C(C)(C)NC(=O)[C@@H]3CNCCN3CC3(C)CCOCC3)ncc12 [SC-037, (S)-N-(2-(8-methylimidazo[1,5-a]pyridin-3-yl)propan-2-yl)-1-((4-methyltetrahydro-2H-pyran-4-yl)methyl)piperazine-2-carboxamide] | 8.77
2 | Cc1cccn2c(C(C)(C)NC(=O)[C@@H]3CN(Cc4ccccc4)CCN3)ncc12 [SC-058, (S)-4-benzyl-N-(2-(8-methylimidazo[1,5-a]pyridin-3-yl)propan-2-yl)piperazine-2-carboxamide] | 5.77
3 | CCN1CCN[C@H](C(=O)NC(C)(C)c2ncc3c(C)cccn23)C1 [SC-054, (S)-4-ethyl-N-(2-(8-methylimidazo[1,5-a]pyridin-3-yl)propan-2-yl)piperazine-2-carboxamide] | 7.77
4 | Cc1cccn2c(C(C)(C)NC(=O)C3CNCCN3C(=O)C3COC3)ncc12 (racemic) [SC-013, rac-N-(2-(8-methylimidazo[1,5-a]pyridin-3-yl)propan-2-yl)-1-(oxetane-3-carbonyl)piperazine-2-carboxamide] | 6.46
5 | Cc1cccn2c(C(C)(C)NC(=O)[C@@H]3CNCCN3Cc3cccc(F)c3)ncc12 [SC-029, (S)-1-(3-fluorobenzyl)-N-(2-(8-methylimidazo[1,5-a]pyridin-3-yl)propan-2-yl)piperazine-2-carboxamide] | 9.96
6 | Cc1cccn2c(C(C)(C)NC(=O)[C@@H]3CNCCN3CC3(C)COC3)ncc12 [SC-031, (S)-N-(2-(8-methylimidazo[1,5-a]pyridin-3-yl)propan-2-yl)-1-((3-methyloxetan-3-yl)methyl)piperazine-2-carboxamide] | 7.92
7 | Cc1cccn2c(C(C)(C)NC(=O)[C@@H]3CNCCN3Cc3ccnc(C4CC4)c3)ncc12 [SC-022, (S)-1-((2-cyclopropylpyridin-4-yl)methyl)-N-(2-(8-methylimidazo[1,5-a]pyridin-3-yl)propan-2-yl)piperazine-2-carboxamide] | 10.05
8 | CC(C)(NC(=O)[C@@H]1CNCCN1)c1ncc2c(Cl)cccn12 [SC-108, (S)-N-(2-(8-chloroimidazo[1,5-a]pyridin-3-yl)propan-2-yl)piperazine-2-carboxamide] | 7.72
9 | CN1CCNC[C@H]1C(=O)NC(C)(C)c1n[nH]c2c(F)cccc12 [SC-129, (S)-N-(2-(7-fluoro-1H-indazol-3-yl)propan-2-yl)-1-methylpiperazine-2-carboxamide] | 8.55
10 | Cc1cccn2c(C(C)(C)NC(=O)[C@@H]3CN(C4CCOCC4)CCN3)ncc12 [SC-056, (S)-N-(2-(8-methylimidazo[1,5-a]pyridin-3-yl)propan-2-yl)-4-(tetrahydro-2H-pyran-4-yl)piperazine-2-carboxamide] | 5.52
11 | Cc1cccn2c(C(C)(C)NC(=O)[C@@H]3CNCCN3C)ncc12 [SC-016, (S)-1-methyl-N-(2-(8-methylimidazo[1,5-a]pyridin-3-yl)propan-2-yl)piperazine-2-carboxamide] | 9.36
12 | Cc1cccn2c(C(C)(C)NC(=O)[C@@H]3CNCCN3CC3CCC(F)(F)CC3)ncc12 [SC-087, (S)-1-((4,4-difluorocyclohexyl)methyl)-N-(2-(8-methylimidazo[1,5-a]pyridin-3-yl)propan-2-yl)piperazine-2-carboxamide] | 9.57
13 | COCC(C)(C)CN1CCNC[C@H]1C(=O)NC(C)(C)c1ncc2c(C)cccn12 [SC-039, (S)-1-(3-methoxy-2,2-dimethylpropyl)-N-(2-(8-methylimidazo[1,5-a]pyridin-3-yl)propan-2-yl)piperazine-2-carboxamide] | 8.85
14 | Cc1cccn2c(C(C)(C)NC(=O)[C@@H]3CNCCN3Cc3ccc(F)cc3)ncc12 [SC-027, (S)-1-(4-fluorobenzyl)-N-(2-(8-methylimidazo[1,5-a]pyridin-3-yl)propan-2-yl)piperazine-2-carboxamide] | 10.10
15 | Cc1cc(CN2CCNC[C@H]2C(=O)NC(C)(C)c2ncc3c(C)cccn23)ccn1 [SC-091, (S)-N-(2-(8-methylimidazo[1,5-a]pyridin-3-yl)propan-2-yl)-1-((2-methylpyridin-4-yl)methyl)piperazine-2-carboxamide] | 10.22
16 | Cc1cccn2c(C(C)(C)NC(=O)[C@@H]3CN(Cc4cnn(C(C)C)c4)CCN3)ncc12 [SC-074, (S)-4-((1-isopropyl-1H-pyrazol-4-yl)methyl)-N-(2-(8-methylimidazo[1,5-a]pyridin-3-yl)propan-2-yl)piperazine-2-carboxamide] | 5.59
17 | Cc1cccn2c(C(C)(C)NC(=O)[C@@H]3CNCCN3Cc3ccccc3F)ncc12 [SC-026, (S)-1-(2-fluorobenzyl)-N-(2-(8-methylimidazo[1,5-a]pyridin-3-yl)propan-2-yl)piperazine-2-carboxamide] | 9.92
18 | Cc1cccn2c(C(C)(C)NC(=O)[C@@H]3CNCCN3CC(C)(F)F)ncc12 [SC-019, (S)-1-(2,2-difluoropropyl)-N-(2-(8-methylimidazo[1,5-a]pyridin-3-yl)propan-2-yl)piperazine-2-carboxamide] | 9.24

Row | Compound | pEC50
19 | Cn1nc(C(C)(C)NC(=O)[C@@H]2CNCCN2CC2COC2)c2ccccc21 [SC-123, (S)—N-(2-(1-methyl-1H-indazol-3-yl)propan-2-yl)-1-(oxetan-3-ylmethyl)piperazine-2-carboxamide] | 8.15
20 | CN1CCNC[C@H]1C(=O)NC(C)(C)c1ncc2c(C3CC3)cccn12 [SC-118, (S)-N-(2-(8-cyclopropylimidazo[1,5-a]pyridin-3-yl)propan-2-yl)-1-methylpiperazine-2-carboxamide] | 7.82
21 | Cc1cccn2c(C(C)(C)NC(=O)[C@@H]3CN(Cc4cccnc4)CCN3)ncc12 [SC-061, (S)-N-(2-(8-methylimidazo[1,5-a]pyridin-3-yl)propan-2-yl)-4-(pyridin-3-ylmethyl)piperazine-2-carboxamide] | 5.77
22 | CC(C)(NC(=O)[C@@H]1CNCCN1CC1CC(F)(F)C1)c1ncc2c(C3CC3)cccn12 [SC-121, (S)-N-(2-(8-cyclopropylimidazo[1,5-a]pyridin-3-yl)propan-2-yl)-1-((3,3-difluorocyclobutyl)methyl)piperazine-2-carboxamide] | 7.80
23 | Cc1cccn2c(C(C)(C)NC(=O)[C@@H]3CN(C)CCN3CC3COC3)ncc12 [SC-048, (S)-4-methyl-N-(2-(8-methylimidazo[1,5-a]pyridin-3-yl)propan-2-yl)-1-(oxetan-3-ylmethyl)piperazine-2-carboxamide] | 8.04
24 | Cn1cc(CN2CCNC[C@H]2C(=O)NC(C)(C)c2ncc3c(Cl)cccn23)cn1 [SC-106, (S)-N-(2-(8-chloroimidazo[1,5-a]pyridin-3-yl)propan-2-yl)-1-((1-methyl-1H-pyrazol-4-yl)methyl)piperazine-2-carboxamide] | 8.82
25 | CN1CCNC[C@H]1C(=O)NC(C)(C)c1nn(C)c2ccccc12 [SC-100, (S)-1-methyl-N-(2-(1-methyl-1H-indazol-3-yl)propan-2-yl)piperazine-2-carboxamide] | 9.04
26 | Cc1cccn2c(C(C)(C)NC(=O)[C@@H]3CN(Cc4cc(C(F)(F)F)nn4C)CCN3)ncc12 [SC-064, (S)-4-((1-methyl-3-(trifluoromethyl)-1H-pyrazol-5-yl)methyl)-N-(2-(8-methylimidazo[1,5-a]pyridin-3-yl)propan-2-yl)piperazine-2-carboxamide] | 4.89
27 | Cc1cccn2c(C(C)(C)NC(=O)[C@@H]3CNCCN3Cc3ccnc(C(F)(F)F)c3)ncc12 [SC-036, (S)-N-(2-(8-methylimidazo[1,5-a]pyridin-3-yl)propan-2-yl)-1-((2-(trifluoromethyl)pyridin-4-yl)methyl)piperazine-2-carboxamide] | 10.05
28 | Cc1cccn2c(C(C)(C)NC(=O)[C@@H]3CNCCN3Cc3cnc(C(F)(F)F)nc3)ncc12 [SC-038, (S)-N-(2-(8-methylimidazo[1,5-a]pyridin-3-yl)propan-2-yl)-1-((2-(trifluoromethyl)pyrimidin-5-yl)methyl)piperazine-2-carboxamide] | 9.22
29 | COCCN1CCN[C@H](C(=O)NC(C)(C)c2ncc3c(C)cccn23)C1 [SC-051, (S)-4-(2-methoxyethyl)-N-(2-(8-methylimidazo[1,5-a]pyridin-3-yl)propan-2-yl)piperazine-2-carboxamide] | 6.00
30 | Cn1cc(CN2CCNC[C@H]2C(=O)NC(C)(C)c2ncc3c(C(F)(F)F)cccn23)cn1 [SC-111, (S)-1-((1-methyl-1H-pyrazol-4-yl)methyl)-N-(2-(8-(trifluoromethyl)imidazo[1,5-a]pyridin-3-yl)propan-2-yl)piperazine-2-carboxamide] | 7.03
31 | Cc1cccc2c(C(C)(C)NC(=O)[C@@H]3CN(C)CCN3)n[nH]c12 [SC-095, (S)-4-methyl-N-(2-(7-methyl-1H-indazol-3-yl)propan-2-yl)piperazine-2-carboxamide] | 8.54
32 | Cc1cccn2c(C(C)(C)NC(=O)[C@@H]3CN(CC4CCOCC4)CCN3)ncc12 [SC-057, (S)-N-(2-(8-methylimidazo[1,5-a]pyridin-3-yl)propan-2-yl)-4-((tetrahydro-2H-pyran-4-yl)methyl)piperazine-2-carboxamide] | 7.70
33 | Cc1cccn2c(C(C)(C)NC(=O)[C@@H]3CNCCN3Cc3cccc(C(F)(F)F)c3)ncc12 [SC-025, (S)-N-(2-(8-methylimidazo[1,5-a]pyridin-3-yl)propan-2-yl)-1-(3-(trifluoromethyl)benzyl)piperazine-2-carboxamide] | 10.30
34 | COCCN1CCNC[C@H]1C(=O)NC(C)(C)c1nn(C)c2ccccc12 [SC-101, (S)-1-(2-methoxyethyl)-N-(2-(1-methyl-1H-indazol-3-yl)propan-2-yl)piperazine-2-carboxamide] | 8.23
35 | Cc1cccn2c(C(C)(C)NC(=O)[C@@H]3CN(Cc4ccn(C(C)C)n4)CCN3)ncc12 [SC-073, (S)-4-((1-isopropyl-1H-pyrazol-3-yl)methyl)-N-(2-(8-methylimidazo[1,5-a]pyridin-3-yl)propan-2-yl)piperazine-2-carboxamide] | 5.32
